Reference: ChEMBL document CHEMBL1201862, “PubChem BioAssay data set” (2004)
Several values for one entry are separate records, joined by “and”; a condition that tells them apart may be missing. Identical values can stand only once.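 Compound exposure: 48 hours, 5 concentrations, 96-well plates. GI50 = concentration required for 50% inhibition of growth.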 Activity calls are given as the source filed them. No stated cut-off is given here; in the data, active = GI50 up to about 1.1 µM and inactive = higher. Where a SMILES comes first, the peptide text is derived from it. The star is where a group is joined. Cbz = O=C(OCc1ccccc1)*; OBn = c1ccc(CO*)cc1

Key:
Experiment in all cases: inhibition of tumour cell growth, NCI panel, 48 h
786-0 = tested on: 786-0
A549 = tested on: A549
CCRF-CEM = tested on: CCRF-CEM
HCC 2998 = tested on: HCC 2998
HL-60 = tested on: HL-60
HT-29 = tested on: HT-29
KM12 = tested on: KM12
LOX IMVI = tested on: LOX IMVI
MDA-MB-231 = tested on: MDA-MB-231
MOLT-4 = tested on: MOLT-4
Malme-3M = tested on: Malme-3M
NCI-H23 = tested on: NCI-H23
NCI-H460 = tested on: NCI-H460
OVCAR-3 = tested on: OVCAR-3
OVCAR-4 = tested on: OVCAR-4
SK-OV-3 = tested on: SK-OV-3
SNB-19 = tested on: SNB-19
TK-10 = tested on: TK-10
UO-31 = tested on: UO-31
RXF 393 = tested on: RXF 393

Measured: GI50

Fc1ccc(C(OCCN2CC3CCC(C2)N3CCCc2ccccc2)c2ccc(F)cc2)cc1
inactive: 786-0 3.62 µM | A549 8.15 µM | CCRF-CEM 2.71 µM | HCC 2998 2.87 µM | HL-60 3.08 µM | HT-29 3.29 µM | KM12 3.18 µM | LOX IMVI 3.89 µM | MDA-MB-231 2.74 µM | MOLT-4 2.79 µM | Malme-3M 3.32 µM | NCI-H23 4.25 µM | NCI-H460 3.01 µM | OVCAR-3 5.92 µM | OVCAR-4 3.94 µM | SK-OV-3 10.2 µM | SNB-19 10.1 µM | TK-10 11.7 µM | UO-31 7.33 µM

O=C(O)Cc1ccc([N+](=O)[O-])cc1[N+](=O)[O-]
inactive: 786-0 > 100 µM | A549 > 100 µM | CCRF-CEM > 100 µM | HL-60 > 100 µM | HT-29 > 100 µM | KM12 > 100 µM | LOX IMVI > 100 µM | MDA-MB-231 > 100 µM | MOLT-4 > 100 µM | Malme-3M > 100 µM | NCI-H23 > 100 µM | NCI-H460 > 100 µM | OVCAR-3 > 100 µM | OVCAR-4 > 100 µM | RXF 393 > 100 µM | SK-OV-3 > 100 µM | SNB-19 > 100 µM | TK-10 > 100 µM | UO-31 > 100 µM

NC(=S)C1=C(N)Oc2c(c(=O)oc3ccccc23)C1c1ccc(Br)cc1 (stereo unspecified)
inactive: 786-0 > 100 µM | A549 > 100 µM | CCRF-CEM 36.3 µM | HCC 2998 > 100 µM | HL-60 50.8 µM | HT-29 > 100 µM | LOX IMVI > 100 µM | MDA-MB-231 > 100 µM | Malme-3M > 100 µM | NCI-H23 > 100 µM | NCI-H460 > 100 µM | OVCAR-3 > 100 µM | OVCAR-4 > 100 µM | SK-OV-3 > 100 µM | SNB-19 > 100 µM | TK-10 > 100 µM | UO-31 > 100 µM

Cc1nc2ccc(NC3OC(CO)C(O)C(O)C3O)cc2c(=O)n1-c1ccccc1 (stereo unspecified)
inactive: 786-0 > 100 µM | HCC 2998 > 100 µM | HL-60 > 100 µM | HT-29 > 100 µM | KM12 92.7 µM | LOX IMVI > 100 µM | MDA-MB-231 > 100 µM | MOLT-4 > 100 µM and > 99.3 µM | Malme-3M > 100 µM | NCI-H23 > 100 µM | NCI-H460 > 100 µM | OVCAR-3 > 100 µM | OVCAR-4 > 100 µM | RXF 393 > 100 µM | SNB-19 > 100 µM | TK-10 > 100 µM | UO-31 > 100 µM

CC(C)(C)N/N=C(\C(=O)NC1=C(Cl)C(=O)c2ccccc2C1=O)C1C=CCS1(=O)=O (stereo unspecified)
inactive: 786-0 22.4 µM | A549 16.9 µM | CCRF-CEM > 100 µM | HCC 2998 36.1 µM | HL-60 > 100 µM | HT-29 14.4 µM | KM12 16 µM | LOX IMVI 7.98 µM | MDA-MB-231 14.6 µM | MOLT-4 66.7 µM | Malme-3M 2.27 µM | NCI-H23 8.15 µM | NCI-H460 6.84 µM | OVCAR-3 2.65 µM | OVCAR-4 16.4 µM | SK-OV-3 > 100 µM | SNB-19 > 100 µM | TK-10 38.9 µM | UO-31 16.8 µM

COc1cccc(CCNC(=O)Cc2ccccc2CCO)c1
inactive: 786-0 > 100 µM | A549 > 100 µM | CCRF-CEM > 100 µM | HCC 2998 > 100 µM | HL-60 > 100 µM | HT-29 > 100 µM | KM12 > 100 µM | MDA-MB-231 > 100 µM | MOLT-4 > 100 µM | NCI-H23 > 100 µM | NCI-H460 > 100 µM | OVCAR-3 > 100 µM | OVCAR-4 > 100 µM | RXF 393 > 100 µM | SK-OV-3 > 100 µM | SNB-19 > 100 µM | TK-10 > 100 µM | UO-31 > 100 µM

COC1C=COC2(C)Oc3c(C)c(O)c4c(O)c(c(C5SCCS5)c(O)c4c3C2=O)NC(=O)/C(C)=C\C=CC(C)C(O)C(C)C(O)C(C)C(OC(C)=O)C1C (stereo unspecified)
inactive: 786-0 8.87 µM | A549 6.79 µM | CCRF-CEM 2.26 µM | HL-60 4.02 µM | HT-29 3.49 µM | KM12 5.35 µM | LOX IMVI 2.18 µM | MDA-MB-231 5.71 µM | MOLT-4 2.32 µM | Malme-3M 8.11 µM | NCI-H23 4.69 µM | NCI-H460 4.26 µM | OVCAR-3 4.99 µM | OVCAR-4 7.33 µM | RXF 393 6.05 µM | SK-OV-3 14.1 µM | SNB-19 4.88 µM | TK-10 3.21 µM | UO-31 12.1 µM

COc1c(Sc2c(SCSc3cnc4ccccc4c3Sc3cnc4ccccc4c3OC)cnc3ccccc23)cnc2ccccc12
inactive: 786-0 > 100 µM | A549 > 100 µM | CCRF-CEM > 100 µM | HCC 2998 > 100 µM | HL-60 1.59 µM | HT-29 78.7 µM | KM12 > 100 µM | LOX IMVI > 100 µM | MDA-MB-231 29 µM | MOLT-4 55.8 µM | NCI-H23 54.8 µM | NCI-H460 98.2 µM | OVCAR-3 > 100 µM | OVCAR-4 37.2 µM | SNB-19 22.4 µM | TK-10 38.6 µM | UO-31 24.7 µM

CN(C)C1C(O)=C(C(=O)NCN2CCCC2)C(=O)C2(O)C(O)=C3C(=O)c4c(O)cccc4C(C)(O)C3CC12 (stereo unspecified)
inactive: 786-0 > 100 µM | A549 69.3 µM | CCRF-CEM 59 µM | HL-60 > 100 µM | HT-29 > 100 µM | KM12 > 100 µM | LOX IMVI > 100 µM | MDA-MB-231 29.2 µM | MOLT-4 40 µM | Malme-3M 25.6 µM | NCI-H23 63.5 µM | OVCAR-3 > 100 µM | OVCAR-4 > 100 µM | RXF 393 > 100 µM | SK-OV-3 > 100 µM | SNB-19 > 100 µM | TK-10 60.7 µM | UO-31 > 100 µM

CN1CCN(CC(=O)N2CCCn3c2nc2ccccc2c3=O)CC1
inactive: 786-0 > 100 µM | A549 > 100 µM | CCRF-CEM > 100 µM | HCC 2998 > 100 µM | HL-60 > 100 µM | HT-29 > 100 µM | KM12 > 100 µM | LOX IMVI > 100 µM | MDA-MB-231 > 100 µM | MOLT-4 > 100 µM | Malme-3M > 100 µM | NCI-H23 > 100 µM | NCI-H460 > 100 µM | OVCAR-3 > 100 µM | OVCAR-4 > 100 µM | SK-OV-3 > 100 µM | SNB-19 > 100 µM | TK-10 > 100 µM | UO-31 > 100 µM

Cc1cc(OCc2nnc3n2S(=O)(=O)c2ccccc2N3C)ccc1Cl
inactive: 786-0 11.8 µM | A549 44.9 µM | CCRF-CEM 15.7 µM | HCC 2998 > 100 µM | HL-60 21 µM | HT-29 52 µM | KM12 > 100 µM | LOX IMVI 33.7 µM | MDA-MB-231 16.3 µM | MOLT-4 55 µM | NCI-H23 34.4 µM | NCI-H460 39.9 µM | OVCAR-3 19.5 µM | OVCAR-4 8 µM | RXF 393 21.2 µM | SK-OV-3 10.4 µM | SNB-19 19.3 µM | TK-10 29.9 µM | UO-31 58.3 µM

CCCC(CCN)(CCN)[N+](=O)[O-]
inactive: 786-0 > 100 µM | A549 > 100 µM | CCRF-CEM > 100 µM | HL-60 > 100 µM | HT-29 > 100 µM | KM12 > 100 µM | MDA-MB-231 > 100 µM | MOLT-4 > 100 µM | Malme-3M > 100 µM | NCI-H23 > 100 µM | NCI-H460 > 100 µM | OVCAR-4 > 100 µM | RXF 393 > 100 µM | SK-OV-3 > 100 µM | SNB-19 > 100 µM | TK-10 > 100 µM | UO-31 > 100 µM

Cc1cccc(NC(=O)CC(=O)N2N=C(N3c4ccccc4Sc4ccccc43)CC2c2ccccc2)c1 (stereo unspecified)
inactive: 786-0 > 100 µM | A549 > 100 µM | CCRF-CEM > 100 µM | HCC 2998 > 100 µM | HL-60 > 100 µM | HT-29 > 100 µM | KM12 > 100 µM | MDA-MB-231 > 100 µM | MOLT-4 > 100 µM | NCI-H23 > 100 µM | NCI-H460 > 100 µM | OVCAR-3 > 100 µM | OVCAR-4 > 100 µM | RXF 393 > 100 µM | SK-OV-3 > 100 µM | SNB-19 > 100 µM | TK-10 > 100 µM | UO-31 > 100 µM

Cc1ccc(S(=O)(=O)NC(CCC(=O)NNc2ccccc2)C(=O)NNc2ccccc2)cc1 (stereo unspecified)
inactive: 786-0 > 100 µM | A549 15.6 µM | CCRF-CEM 51.4 µM | HL-60 > 100 µM | HT-29 13.2 µM | KM12 2.84 µM | LOX IMVI > 100 µM | MDA-MB-231 > 100 µM | MOLT-4 3.85 µM | Malme-3M 31.7 µM | NCI-H23 61.4 µM | NCI-H460 16.8 µM | OVCAR-3 54.6 µM | OVCAR-4 25.8 µM | RXF 393 > 100 µM | SK-OV-3 > 100 µM | SNB-19 > 100 µM | TK-10 1.95 µM | UO-31 6.1 µM

COC(=O)C(Cc1ccc(O)cc1)NC(=O)C(CC(=O)OCc1ccccc1)NC(=O)OCc1ccccc1 (stereo unspecified) (Cbz-Asp(OBn)-Tyr-OMe; configuration not given here)
inactive: 786-0 18.2 µM | A549 20.7 µM | CCRF-CEM 53.2 µM | HCC 2998 17.6 µM | HL-60 25.6 µM | HT-29 17.1 µM | KM12 22.6 µM | MDA-MB-231 18.7 µM | MOLT-4 24.7 µM | Malme-3M 41.1 µM | NCI-H23 23.6 µM | NCI-H460 12.4 µM | RXF 393 14 µM | SNB-19 18.3 µM | TK-10 18.2 µM | UO-31 22.9 µM
